Test results as given in ChEMBL document CHEMBL4024743, “BACE-1 Inhibitors: From Recent Single-Target Molecules to Multitarget Compounds for Alzheimer's Disease” (J Med Chem, 2018).

Legend:
Beta-secretase 1 [1] = biological target: T1, Beta-secretase 1 (Homo sapiens, UniProt P56817); experiment: Inhibition of human BACE-1 preincubated for 1 hr followed by substrate addition measured after 60 mins by FRET assay
Beta-secretase 1 [2] = biological target: T1, Beta-secretase 1; experiment: Inhibition of BACE-1 (unknown origin)
[3] = Drug uptake in CD16 mouse brain at 3 mg/kg, po after 30 mins by LC-MS/MS analysis; type: ADME, organism-based; settings: read-out: Drug uptake
[4] = Oral bioavailability in CD16 mouse at 10 mg/kg; type: ADME, organism-based; settings: in vivo
[5] = biological target: Glycogen synthase kinase-3 beta (Homo sapiens, UniProt P49841); experiment: Inhibition of recombinant human GSK3beta using prephosphorylated polypeptide as substrate preincubated for 30 mins followed by addition of kinase-glo stop solution measured after 10 mins by Kinase-Glo luminescence assay
Glycogen synthase kinase-3 beta, sequence (P49841 whole entry): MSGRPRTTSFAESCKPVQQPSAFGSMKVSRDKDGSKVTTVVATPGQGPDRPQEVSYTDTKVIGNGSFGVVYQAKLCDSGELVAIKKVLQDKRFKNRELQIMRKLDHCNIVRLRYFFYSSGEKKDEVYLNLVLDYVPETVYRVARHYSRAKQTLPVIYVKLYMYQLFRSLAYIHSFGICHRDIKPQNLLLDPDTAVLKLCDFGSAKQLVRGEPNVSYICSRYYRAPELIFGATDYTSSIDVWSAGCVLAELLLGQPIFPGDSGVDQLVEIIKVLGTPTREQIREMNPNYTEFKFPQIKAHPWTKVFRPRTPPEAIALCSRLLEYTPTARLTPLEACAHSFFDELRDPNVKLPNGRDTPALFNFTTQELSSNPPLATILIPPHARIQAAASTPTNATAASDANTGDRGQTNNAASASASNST

Beta-secretase 1 [6] = biological target: T1, Beta-secretase 1
Description: Inhibition of BACE-1 (unknown origin) using APP derived polypeptide harboring Lys-Met/Asn-Leu mutation as substrate by FRET assay

T1 sequence (P56817 whole entry): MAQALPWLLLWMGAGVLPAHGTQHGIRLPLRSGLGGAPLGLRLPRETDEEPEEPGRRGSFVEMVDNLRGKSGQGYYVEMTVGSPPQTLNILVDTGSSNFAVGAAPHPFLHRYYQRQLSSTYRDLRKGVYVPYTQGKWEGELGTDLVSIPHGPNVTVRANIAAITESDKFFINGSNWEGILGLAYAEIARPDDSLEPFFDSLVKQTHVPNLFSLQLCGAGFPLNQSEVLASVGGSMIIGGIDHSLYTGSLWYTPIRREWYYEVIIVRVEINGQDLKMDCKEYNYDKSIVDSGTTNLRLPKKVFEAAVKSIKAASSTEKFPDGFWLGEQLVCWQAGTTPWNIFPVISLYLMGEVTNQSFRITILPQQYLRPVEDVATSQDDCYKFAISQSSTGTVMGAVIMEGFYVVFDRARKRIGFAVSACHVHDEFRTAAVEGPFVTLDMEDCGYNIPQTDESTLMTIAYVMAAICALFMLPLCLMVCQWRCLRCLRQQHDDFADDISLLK

`CC1Cc2ccc(OC(=O)c3ccc(NC(=N)N)cc3)cc2OC1=O` (stereo not drawn) gave an IC50 (Beta-secretase 1 [1]) of 1.5 µM.

`OC1=C2Nc3ccccc3N=C2OC1c1c[nH]c2ccc(COc3ccccc3)cc12` (stereo not drawn) showed an IC50 (Beta-secretase 1 [1]) of 1.8 µM.

In the case of `O=C1NC(=O)C2C=CNC2N1` (stereo not drawn), the IC50 (Beta-secretase 1 [2]) is reported as 30.3 µM.

In the case of `O=C1CSC2(CCN(CCCN3c4ccccc4Sc4ccc(Cl)cc43)CC2)N1` [SPICLOMAZINE], the IC50 (Beta-secretase 1 [1]) is reported as 6.6 µM.

For `NC1=NC(c2ccc(F)cc2)NC(=O)N1` (stereo not drawn), the concentration at 0.5 h [3] was 620 nM, the bioavailability [4] was 66% and the IC50 [5] was 14.7 µM.

With `CC#Cc1cncc(-c2ccc3c(c2)[C@]2(CO3)N=C(N)C[C@@H]2C(F)(F)F)c1` the IC50 (Beta-secretase 1 [6]) was 0.115 µM.
